Reference: US20260365670A1, “EGFR INHIBITORS AND USES THEREOF” (DIZAL (JIANGSU) PHARMACEUTICAL CO., LTD., priority 2022, published 2026)
Like-named read-outs stand apart in the source and are kept apart here.

What was measured:
[1] = target: T1, EGFR wild type (Homo sapiens, UniProt P00533); experiment: Inhibition of EGFR wild type biochemical enzymatic activity (HTRF); conditions: EGFR WT, 1 mM ATP, 1 h, room temperature, read-out: IC50 (nM) @WT
T1 construct: purchased Carna Bio
Summary of the method: (§1)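 In a buffer with 5 mM MgCl2, 1 mM MnCl2, 1 mM DTT and 0.01% CHAPS, enzyme turnover of 1 μM biotinylated TK substrate at 1 mM ATP is followed by HTRF after 1 h at room temperature. IC50 is obtained by a four-parameter fit.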

[2] = target: T2, EGFR L858R (Homo sapiens, UniProt P00533, L858R); experiment: Inhibition of EGFR L858R biochemical enzymatic activity (HTRF); conditions: 1 mM ATP, 1 h, room temperature, read-out: IC50 (nM) @L858R
T2 construct: purchased Carna Bio
Summary of the method: as §1

[3] = target: T3, EGFR L858R/T790M (Homo sapiens, UniProt P00533, L858R/T790M); experiment: Inhibition of EGFR L858R/T790M biochemical enzymatic activity (HTRF); conditions: EGFR L858R-T790M, 1 mM ATP, 1 h, room temperature, read-out: IC50 (nM) @L858R-T790M
T3 construct: purchased Carna Bio
T3 sequence (P00533 25-1210 T790M/L858R): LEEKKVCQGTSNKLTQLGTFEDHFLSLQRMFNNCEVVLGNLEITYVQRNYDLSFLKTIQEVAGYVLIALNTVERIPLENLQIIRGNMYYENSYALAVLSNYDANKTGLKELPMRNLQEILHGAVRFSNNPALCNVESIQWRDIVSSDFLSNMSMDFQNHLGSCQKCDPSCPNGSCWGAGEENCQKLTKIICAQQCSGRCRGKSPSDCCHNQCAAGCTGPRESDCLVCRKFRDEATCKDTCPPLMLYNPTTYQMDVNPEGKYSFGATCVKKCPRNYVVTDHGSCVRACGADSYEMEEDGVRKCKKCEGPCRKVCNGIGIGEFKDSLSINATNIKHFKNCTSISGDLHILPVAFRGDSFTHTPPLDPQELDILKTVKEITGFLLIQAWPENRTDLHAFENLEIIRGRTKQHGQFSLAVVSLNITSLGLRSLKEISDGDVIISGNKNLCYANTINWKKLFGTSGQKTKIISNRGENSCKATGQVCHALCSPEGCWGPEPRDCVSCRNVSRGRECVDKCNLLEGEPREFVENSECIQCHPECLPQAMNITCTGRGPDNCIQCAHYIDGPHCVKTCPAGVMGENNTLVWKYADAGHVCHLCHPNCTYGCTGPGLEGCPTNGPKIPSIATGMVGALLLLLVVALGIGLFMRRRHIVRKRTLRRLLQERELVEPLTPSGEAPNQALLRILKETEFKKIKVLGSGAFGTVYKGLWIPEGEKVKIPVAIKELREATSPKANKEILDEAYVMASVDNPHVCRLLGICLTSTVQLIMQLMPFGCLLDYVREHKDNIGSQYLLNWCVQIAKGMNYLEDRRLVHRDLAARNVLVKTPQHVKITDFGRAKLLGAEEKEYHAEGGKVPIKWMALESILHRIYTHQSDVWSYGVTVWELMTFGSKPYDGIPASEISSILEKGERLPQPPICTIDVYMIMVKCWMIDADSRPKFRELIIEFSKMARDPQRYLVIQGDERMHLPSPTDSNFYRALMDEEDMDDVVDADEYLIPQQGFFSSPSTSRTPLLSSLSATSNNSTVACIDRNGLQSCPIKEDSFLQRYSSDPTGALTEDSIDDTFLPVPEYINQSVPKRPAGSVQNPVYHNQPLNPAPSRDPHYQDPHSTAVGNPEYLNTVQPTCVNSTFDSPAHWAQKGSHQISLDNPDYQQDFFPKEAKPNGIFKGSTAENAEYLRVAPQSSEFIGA
Summary of the method: as §1

[4] = target: T4, EGFR Exon19Del (Homo sapiens, UniProt P00533, DEL746-750); experiment: Inhibition of EGFR Exon19Del biochemical enzymatic activity (HTRF); conditions: EGFR Del19, 1 mM ATP, 1 h, room temperature, read-out: IC50 @Del19
T4 construct: purchased Carna Bio
T4 sequence (P00533 with tags, fused parts or gaps DEL746-750 limits assumed): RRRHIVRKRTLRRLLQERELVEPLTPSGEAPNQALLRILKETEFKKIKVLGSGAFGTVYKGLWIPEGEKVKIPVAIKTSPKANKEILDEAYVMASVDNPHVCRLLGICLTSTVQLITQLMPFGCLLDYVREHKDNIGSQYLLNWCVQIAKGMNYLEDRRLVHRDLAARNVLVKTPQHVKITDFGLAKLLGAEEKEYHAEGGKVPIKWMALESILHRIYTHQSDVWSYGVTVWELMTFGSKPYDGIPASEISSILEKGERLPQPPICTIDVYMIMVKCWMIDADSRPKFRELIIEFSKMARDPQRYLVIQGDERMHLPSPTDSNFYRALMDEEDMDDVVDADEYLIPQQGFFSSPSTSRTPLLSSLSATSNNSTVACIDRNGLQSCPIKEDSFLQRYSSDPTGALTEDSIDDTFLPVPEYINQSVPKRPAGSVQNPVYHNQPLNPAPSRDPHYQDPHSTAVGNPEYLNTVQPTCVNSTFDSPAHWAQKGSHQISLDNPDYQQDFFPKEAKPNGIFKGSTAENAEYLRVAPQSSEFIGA
Summary of the method: as §1

[5] = target: T5, EGFR Exon19Del/T790M (Homo sapiens, UniProt P00533, DEL746-750/T790M); experiment: Inhibition of EGFR Exon19Del/T790M biochemical enzymatic activity (HTRF); conditions: EGFR Del19-T790M, 1 mM ATP, 1 h, room temperature, read-out: IC50 (nM) @Del19-T790M
T5 construct: purchased Carna Bio
Summary of the method: as §1

[6] = target: T6, EGFR[T790M/C797S/L858R] (Homo sapiens, UniProt P00533, C797S/L858R/T790M); experiment: Inhibition of EGFR[T790M/C797S/L858R] biochemical enzymatic activity (HTRF); conditions: EGFR T790M-C797S-L858R, 1 mM ATP, 1 h, room temperature, read-out: IC50 (nM) @T790M- C797S - L858R
T6 construct: purchased Carna Bio
Summary of the method: as §1

[7] = target: T7, EGFR[T790M/C797S/d746-750] (Homo sapiens, UniProt P00533, C797S/DEL746-750/T790M); experiment: Inhibition of EGFR[T790M/C797S/d746-750] biochemical enzymatic activity (HTRF); conditions: EGFR T790M-C797S-Del19, 1 mM ATP, 1 h, room temperature, read-out: IC50 (nM) @T790M - C797S - Del19
T7 construct: purchased Carna Bio
T7 sequence (P00533 with tags, fused parts or gaps DEL746-750/T790M/C797S limits assumed): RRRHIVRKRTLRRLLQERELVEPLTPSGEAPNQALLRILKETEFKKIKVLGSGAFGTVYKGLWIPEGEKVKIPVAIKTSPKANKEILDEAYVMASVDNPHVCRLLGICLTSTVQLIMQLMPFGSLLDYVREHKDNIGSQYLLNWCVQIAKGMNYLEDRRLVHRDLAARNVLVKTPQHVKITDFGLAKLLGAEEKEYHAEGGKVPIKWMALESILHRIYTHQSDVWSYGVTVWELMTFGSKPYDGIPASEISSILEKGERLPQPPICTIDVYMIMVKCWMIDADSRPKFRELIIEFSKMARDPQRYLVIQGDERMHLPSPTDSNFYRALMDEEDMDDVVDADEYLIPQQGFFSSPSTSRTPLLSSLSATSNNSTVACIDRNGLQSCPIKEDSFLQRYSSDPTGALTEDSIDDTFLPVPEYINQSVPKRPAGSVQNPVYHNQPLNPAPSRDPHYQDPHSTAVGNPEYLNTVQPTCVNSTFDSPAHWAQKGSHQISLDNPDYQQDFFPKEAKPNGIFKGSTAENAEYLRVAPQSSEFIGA
Summary of the method: as §1

[8] = target: T8, EGFR (d746-750 C797S) (Homo sapiens, UniProt P00533, C797S/DEL746-750); experiment: Inhibition of EGFR (d746-750 C797S) biochemical enzymatic activity (HTRF); conditions: EGFR Del19-C797S, 1 mM ATP, 1 h, room temperature, read-out: IC50 (nM) @Del19-C797S
T8 construct: purchased signalchem
Summary of the method: as §1

[9] = target: T9, EGFR (C797S L858R) (Homo sapiens, UniProt P00533, C797S/L858R); experiment: Inhibition of EGFR (C797S L858R) biochemical enzymatic activity (HTRF); conditions: EGFR L858-C797S, 1 mM ATP, 1 h, room temperature, read-out: IC50 (nM) @L858-C797S
T9 construct: purchased signalchem
T9 sequence (P00533 25-1210 C797S/L858R): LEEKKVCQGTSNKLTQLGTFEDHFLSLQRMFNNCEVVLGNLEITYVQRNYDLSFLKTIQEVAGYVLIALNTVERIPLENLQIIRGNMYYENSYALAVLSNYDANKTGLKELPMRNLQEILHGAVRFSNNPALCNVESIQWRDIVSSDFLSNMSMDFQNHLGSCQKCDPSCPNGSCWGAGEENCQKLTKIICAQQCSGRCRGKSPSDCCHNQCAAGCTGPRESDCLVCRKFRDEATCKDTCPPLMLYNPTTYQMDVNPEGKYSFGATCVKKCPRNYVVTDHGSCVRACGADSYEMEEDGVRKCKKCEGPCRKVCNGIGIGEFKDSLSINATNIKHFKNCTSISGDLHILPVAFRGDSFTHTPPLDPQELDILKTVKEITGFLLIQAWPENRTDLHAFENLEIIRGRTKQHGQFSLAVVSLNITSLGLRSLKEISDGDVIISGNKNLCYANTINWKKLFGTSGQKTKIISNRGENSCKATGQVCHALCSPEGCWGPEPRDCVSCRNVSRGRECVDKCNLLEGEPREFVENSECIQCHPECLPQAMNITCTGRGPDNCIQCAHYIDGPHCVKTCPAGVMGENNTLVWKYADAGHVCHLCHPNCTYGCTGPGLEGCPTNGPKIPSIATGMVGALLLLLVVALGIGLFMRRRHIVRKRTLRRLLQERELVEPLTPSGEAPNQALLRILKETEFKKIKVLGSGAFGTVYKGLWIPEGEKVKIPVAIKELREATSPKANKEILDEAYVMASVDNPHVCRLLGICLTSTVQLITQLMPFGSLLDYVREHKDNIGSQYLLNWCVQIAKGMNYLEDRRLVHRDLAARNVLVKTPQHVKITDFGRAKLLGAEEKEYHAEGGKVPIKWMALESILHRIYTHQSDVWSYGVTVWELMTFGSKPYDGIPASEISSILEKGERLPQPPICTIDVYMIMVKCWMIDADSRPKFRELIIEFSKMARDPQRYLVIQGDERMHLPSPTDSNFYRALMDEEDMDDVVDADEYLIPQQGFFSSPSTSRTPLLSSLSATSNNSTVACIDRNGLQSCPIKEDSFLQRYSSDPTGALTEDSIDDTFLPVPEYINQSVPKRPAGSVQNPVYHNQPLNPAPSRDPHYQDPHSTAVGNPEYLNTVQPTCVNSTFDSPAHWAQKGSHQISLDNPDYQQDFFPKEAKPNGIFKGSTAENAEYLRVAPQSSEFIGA
Summary of the method: as §1

[10] = system: Ba/F3 cells expressing EGFR mutations; experiment: Cell proliferation assay, Ba/F3 cells expressing EGFR mutations (CellTiter-Glo, 72 hours); assay type: cell-based; conditions: CellTiter-Glo
Summary of the method: (§2)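 GI50 is the concentration giving 50% proliferation inhibition. Growth for this was normalised to a baseline viability reading taken when compound was added, and to DMSO wells. PC-9 (500 cells/well) and mutant-EGFR Ba/F3 (5000 cells/well) are treated after overnight seeding in RPMI1640-based medium.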

[11] = system: PC-9; experiment: Cell proliferation assay, PC-9 cells (CellTiter-Glo, 72 hours); assay type: cell-based; conditions: PC9 cells, CellTiter-Glo, read-out: PC9 GI50
Summary of the method: as §2

[12] = system: A-431; experiment: Cell proliferation GI50, A-431 cells (Table 6); assay type: cell-based
[13] = Mus musculus, BaF3, 72 h, BaF3 cells, EGFR DEL19-C797S, read-out: DEL19-C797S/BaF3 GI50
[14] = Mus musculus, BaF3, 72 h, BaF3 cells, EGFR DEL19-T790-C797S, read-out: DEL19-T790-C797S/BaF3 GI50
[15] = Mus musculus, BaF3, 72 h, BaF3 cells, EGFR L858R, read-out: L858R/BaF3 GI50
[16] = Mus musculus, BaF3, 72 h, BaF3 cells, EGFR L858R-C797S, read-out: L858R-C797S/BaF3 GI50
[17] = Mus musculus, BaF3, 72 h, BaF3 cells, EGFR L858R-T790-C797S, read-out: L858R-T790-C797S/BaF3 GI50
[18] = Mus musculus, BaF3, 72 h, BaF3 cells, EGFR L858R-T790M, read-out: L858R-T790M/BaF3 GI50
[19] = Mus musculus, BaF3, 72 h, EGFR DEL19-T790M, read-out: DEL19-T790M GI50
[20] = Homo sapiens, A-431, A-431 cells
[21] = BaF3 cells, EGFR DEL19-C797S, read-out: DEL19-C797S/BaF3 GI50
[22] = BaF3 cells, EGFR DEL19-T790-C797S, read-out: DEL19-T790-C797S/BaF3 GI50
[23] = BaF3 cells, EGFR L858R, read-out: L858R/BaF3 GI50
[24] = BaF3 cells, EGFR L858R-C797S, read-out: L858R-C797S/BaF3 GI50
[25] = BaF3 cells, EGFR L858R-T790-C797S, read-out: L858R-T790-C797S/BaF3 GI50
[26] = BaF3 cells, EGFR L858R-T790M, read-out: L858R-T790M/BaF3 GI50
[27] = EGFR DEL19-T790M, read-out: DEL19-T790M GI50

T1 sequence (P00533 25-1210): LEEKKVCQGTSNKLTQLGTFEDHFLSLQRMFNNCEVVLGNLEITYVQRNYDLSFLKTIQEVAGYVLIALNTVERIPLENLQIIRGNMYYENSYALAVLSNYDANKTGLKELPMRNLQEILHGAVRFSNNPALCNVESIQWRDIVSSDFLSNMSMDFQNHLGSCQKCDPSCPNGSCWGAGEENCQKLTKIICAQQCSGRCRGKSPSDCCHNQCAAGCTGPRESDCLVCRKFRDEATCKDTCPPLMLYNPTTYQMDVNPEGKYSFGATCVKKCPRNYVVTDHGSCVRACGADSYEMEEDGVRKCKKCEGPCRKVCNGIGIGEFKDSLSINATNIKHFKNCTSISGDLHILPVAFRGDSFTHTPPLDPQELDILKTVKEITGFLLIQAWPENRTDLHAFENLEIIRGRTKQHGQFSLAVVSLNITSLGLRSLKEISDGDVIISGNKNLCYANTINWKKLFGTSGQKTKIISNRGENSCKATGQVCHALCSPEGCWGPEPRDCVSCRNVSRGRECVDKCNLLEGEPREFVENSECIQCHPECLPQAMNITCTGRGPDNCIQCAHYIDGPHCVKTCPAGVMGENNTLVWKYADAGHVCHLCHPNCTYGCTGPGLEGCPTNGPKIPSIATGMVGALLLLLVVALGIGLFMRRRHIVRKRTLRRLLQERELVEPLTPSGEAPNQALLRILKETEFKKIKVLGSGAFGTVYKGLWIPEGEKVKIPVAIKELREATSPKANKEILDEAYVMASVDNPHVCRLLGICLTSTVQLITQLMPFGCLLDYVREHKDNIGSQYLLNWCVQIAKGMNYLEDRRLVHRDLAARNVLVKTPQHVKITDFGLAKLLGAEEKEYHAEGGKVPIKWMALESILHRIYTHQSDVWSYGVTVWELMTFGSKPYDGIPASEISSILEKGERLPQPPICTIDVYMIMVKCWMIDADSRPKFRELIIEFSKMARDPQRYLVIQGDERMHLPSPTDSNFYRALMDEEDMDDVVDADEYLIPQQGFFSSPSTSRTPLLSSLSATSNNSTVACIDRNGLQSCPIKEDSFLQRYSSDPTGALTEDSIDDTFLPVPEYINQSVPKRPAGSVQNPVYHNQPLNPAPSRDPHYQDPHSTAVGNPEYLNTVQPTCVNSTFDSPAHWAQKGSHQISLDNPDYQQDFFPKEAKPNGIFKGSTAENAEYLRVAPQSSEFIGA

C[C@@H]1CCCOc2c(cnn2C)-c2cc(cn(C)c2=O)C(=O)Nc2nc3ccc(N4CC5(CCN(C)CC5)C4)cc3n2C1 [Example A41]
IC50 [1]: 74 nM
IC50 [2]: 10 nM
IC50 [3]: 5.1 nM
IC50 [4]: 2.3 nM
IC50 [5]: 3.5 nM
IC50 [6]: 3.2 nM
IC50 [7]: 3.1 nM
IC50 [8]: 1.7 nM
IC50 [9]: 5.3 nM
GI50 [10, 13]: 0.33 nM
GI50 [10, 14]: 1.1 nM
GI50 [10, 15]: 0.47 nM
GI50 [10, 16]: 1.4 nM
GI50 [10, 17]: 0.57 nM
GI50 [10, 18]: 2.9 nM
GI50 [10, 19]: 1.4 nM
GI50 ([11]; Homo sapiens, PC-9, 72 h): 2.9 nM
GI50 [12, 20]: 314 nM

CN1CC2(C1)CN(c1ccc3nc4n(c3c1)C13CCC(CN(CCOc5c(cnn5C)-c5cc(cn(C)c5=O)C(=O)N4)C1)C3)C2 (single isomer, unassigned) [Example A92B]
IC50 [1]: 16 nM
IC50 [2]: 3.2 nM
IC50 [3]: 2.3 nM
IC50 [4]: 1.5 nM
IC50 [5]: 2.6 nM
IC50 [6]: 2.2 nM
IC50 [7]: 2.3 nM
IC50 [8]: 1 nM
IC50 [9]: 2.6 nM
GI50 [10, 21]: 0.5 nM
GI50 [10, 22]: 1.1 nM
GI50 [10, 23]: 0.82 nM
GI50 [10, 24]: 1.6 nM
GI50 [10, 25]: 0.94 nM
GI50 [10, 26]: 3 nM
GI50 [10, 27]: 1.2 nM
GI50 [11]: 9.8 nM
GI50 ([12]; A-431 cells): 842 nM

Cn1ncc2c1OCCN1CC3CCC(C3)(C1)n1c(nc3ccc(N4CCC(N5CC(F)C5)C4)cc31)NC(=O)c1cc-2c(=O)n(C)c1 (single isomer, unassigned) [Example A94B, 5-[3-(3-Fluoroazetidin-1-yl)pyrrolidin-1-yl]-15,21-dimethyl-23-oxa-2,9,11,15,20,21,26-heptaazaheptacyclo[24.4.1.1^{1,28}.1^{13,17}.0^{2,10}.0^{3,8}.0^{18,22}]tritriaconta-3,5,7,9,13,17(33),18(22),19-octaene-12,16-dione]
IC50 [1]: 235 nM
IC50 [2]: 29 nM
IC50 [3]: 11 nM
IC50 [4]: 5.2 nM
IC50 [5]: 11 nM
IC50 [6]: 9.5 nM
IC50 [7]: 8.4 nM
IC50 [8]: 6.1 nM
IC50 [9]: 20 nM
GI50 [10, 22]: 4.5 nM
GI50 [10, 23]: 5.1 nM
GI50 [10, 25]: 7.7 nM
GI50 [10, 26]: 14 nM
GI50 [10, 27]: 3.3 nM
GI50 [11]: 35 nM
GI50 ([12]; A-431 cells): 2880 nM

C[C@@H]1CCCOc2c(cnn2C)-c2cc(cn(C)c2=O)C(=O)Nc2nc3ccc(N4CC5(CCCN5C)C4)cc3n2C1 [Example A44]
IC50 [1]: 236 nM
IC50 [2]: 34 nM
IC50 [3]: 15 nM
IC50 [4]: 4.9 nM
IC50 [5]: 3.3 nM
IC50 [6]: 8.8 nM
IC50 [7]: 3.1 nM
IC50 [8]: 3 nM
IC50 [9]: 15 nM
GI50 [10, 13]: 2 nM
GI50 [10, 14]: 14 nM
GI50 [10, 15]: 4.4 nM
GI50 [10, 16]: 7 nM
GI50 [10, 17]: 5.3 nM
GI50 [10, 18]: 27 nM
GI50 [10, 19]: 16 nM
GI50 ([11]; Homo sapiens, PC-9, 72 h): 14 nM
GI50 [12, 20]: 232 nM

CN(C)CC1(F)CN(c2ccc3nc4n(c3c2)C23CCC(CN(CCOc5c(cnn5C)-c5cc(cn(C)c5=O)C(=O)N4)C2)C3)C1 (single isomer, unassigned) [Example A72B]
IC50 [1]: 5.2 nM
IC50 [2]: 2.4 nM
IC50 [3]: 1.8 nM
IC50 [4]: 1.8 nM
IC50 [5]: 2.4 nM
IC50 [6]: 1.3 nM
IC50 [7]: 2.2 nM
IC50 [8]: 0.92 nM
IC50 [9]: 2 nM
GI50 [10, 21]: 0.51 nM
GI50 [10, 22]: 0.58 nM
GI50 [10, 23]: 0.88 nM
GI50 [10, 24]: 1.9 nM
GI50 [10, 25]: 0.51 nM
GI50 [10, 26]: 1.6 nM
GI50 [10, 27]: 0.51 nM
GI50 [11]: 2.1 nM
GI50 [12, 20]: 731 nM

Cn1ncc2c1OCCN1CC3CCC(C3)(C1)n1c(nc3ccc(N4CCN(C5COC5)CC4)cc31)NC(=O)c1cc-2c(=O)n(C)c1 (single isomer, unassigned) [Example A71B]
IC50 [1]: 319 nM
IC50 [2]: 14 nM
IC50 [3]: 2.8 nM
IC50 [4]: 1.8 nM
IC50 [5]: 2.5 nM
IC50 [6]: 2.9 nM
IC50 [7]: 2.4 nM
IC50 [8]: 1.3 nM
IC50 [9]: 20 nM
GI50 [10, 21]: 0.66 nM
GI50 [10, 22]: 2 nM
GI50 [10, 23]: 2.9 nM
GI50 [10, 24]: 4.2 nM
GI50 [10, 25]: 2.2 nM
GI50 [10, 26]: 8 nM
GI50 [10, 27]: 1.9 nM
GI50 [11]: 6.6 nM
GI50 ([12]; A-431 cells): 830 nM

CN1CCC2(CCN(c3ccc4nc5n(c4c3)C34CCC(CN(CCOc6c(cnn6C)-c6cc(cn(C)c6=O)C(=O)N5)C3)C4)C2)C1 (single isomer, unassigned) [Example A81B]
IC50 [1]: 6.6 nM
IC50 [2]: 3.2 nM
IC50 [3]: 2.3 nM
IC50 [4]: 1.8 nM
IC50 [5]: 2.8 nM
IC50 [6]: 2.3 nM
IC50 [7]: 2.3 nM
IC50 [8]: 1.7 nM
IC50 [9]: 3.1 nM
GI50 [10, 21]: 0.7 nM
GI50 [10, 22]: 2.8 nM
GI50 [10, 23]: 2.6 nM
GI50 [10, 24]: 2.7 nM
GI50 [10, 25]: 11 nM
GI50 [10, 26]: 12 nM
GI50 [10, 27]: 1.9 nM
GI50 [11]: 6.9 nM
GI50 ([12]; A-431 cells): 667 nM

CN(C)CCN(C)c1ccc2nc3n(c2c1)C12CCC(CN(CCOc4c(cnn4C)-c4cc(cn(C)c4=O)C(=O)N3)C1)C2 (single isomer, unassigned) [Example A85B]
IC50 [1]: 84 nM
IC50 [2]: 11 nM
IC50 [3]: 3.1 nM
IC50 [4]: 1.2 nM
IC50 [5]: 2.2 nM
IC50 [6]: 3.1 nM
IC50 [7]: 2.2 nM
IC50 [8]: 1.6 nM
IC50 [9]: 5.5 nM
GI50 [10, 21]: 0.5 nM
GI50 [10, 22]: 1.1 nM
GI50 [10, 23]: 0.78 nM
GI50 [10, 24]: 1.6 nM
GI50 [10, 25]: 1.2 nM
GI50 [10, 26]: 7.7 nM
GI50 [10, 27]: 1.3 nM
GI50 [11]: 12 nM
GI50 [12, 20]: 969 nM
